Source: patent US5525503A, “Signal transduction via CD28” (priority 1993, dated 1996)

Tests used:
CD28 signalling = conditions: cited from earlier work
[1] = molecular target: association of PI 3-kinase with CD28 (Homo sapiens, UniProt P27986); experiment: Peptide competition: displacement of PI 3-kinase from CD28 (anti-CD28 immunoprecipitation, anti-p85 immunoblotting); type: binding; conditions: peptide 10-50 μM; longer exposure of autoradiograph
PI 3-kinase = experiment: CD28-associated PI 3-kinase lipid kinase activity of CD28 mutants in transfected Cos-1 cells after anti-CD28 crosslinking (TLC, laser densitometry); type: cell-based; conditions: relative to wild type CD28
Description: FIG. 8 is a photograph of TLC analysis of lipid products following CD28 crosslinking. Cos-1 cells were transfected with wild type CD28 (WT) (lane 2), Tyr-191 to Phe mutant (F191) (lane 3), Met-194 to Cys (C194) (lane 4), and Tyr-209 to Phe (F209) (lane 5). Transfected cells were then subjected to anti-CD28 crosslinking, immunoprecipitation and lipid kinase analysis. Non-transfected cells served as a negative control (lane 1), while immunoprecipitation with anti-p85 antibody served as a positive control (lane 6).
FIG. 9 is a bar graph showing relative autoradiographic intensities of PI-P spots detected in the TLC analysis shown in FIG. 8. Intensity was quantitated by laser densitometric scanning.
The lipid kinase reaction was carried out on beads using soybean phosphatidyl inositol liposomes and γ32P-ATP (20 μCi). Lipids were then extracted using chloroform and methanol (1:1) and separated by thin layer chromatography on a silica gel plate precoated with potassium oxalate using a basic system (chloroform, methanol, water, ammonium hydroxide (60:47:11.3:2), as described in Whitman et al., supra and Auger et al., supra. The corresponding TLC spots were cut, counted for Cherenkov counts and extracted with a solution containing methylamine, methanol and n-butanol (57.7 ml of 25% methylamine in water, 61.6 ml of methanol and 15.6 ml of n-butanol) for 1 h at 53° C. This method also results in the deacylation of lipids. The samples were dried under vacuum and reconstituted in water. […] The deacylated phospholipids were analyzed on a Beckman HPLC system using an ion exchange column and a gradient of NH4 HPO4. ^3 H-PI-4P and adenosine diphosphate were used as internal standards.
Amino acid residues at positions Tyr-191, Met-194 and Tyr-209 were mutated using a site-directed mutagenesis system from Promega (Madison, Wis.). […] Cells were assessed for cell surface expression of CD28 by fluorescence-activated cell sorting (FACS) (EPICS, Coulter Immunology, Hialeah, Fla.). […]

Sequence of association of PI 3-kinase with CD28 (P27986 whole entry): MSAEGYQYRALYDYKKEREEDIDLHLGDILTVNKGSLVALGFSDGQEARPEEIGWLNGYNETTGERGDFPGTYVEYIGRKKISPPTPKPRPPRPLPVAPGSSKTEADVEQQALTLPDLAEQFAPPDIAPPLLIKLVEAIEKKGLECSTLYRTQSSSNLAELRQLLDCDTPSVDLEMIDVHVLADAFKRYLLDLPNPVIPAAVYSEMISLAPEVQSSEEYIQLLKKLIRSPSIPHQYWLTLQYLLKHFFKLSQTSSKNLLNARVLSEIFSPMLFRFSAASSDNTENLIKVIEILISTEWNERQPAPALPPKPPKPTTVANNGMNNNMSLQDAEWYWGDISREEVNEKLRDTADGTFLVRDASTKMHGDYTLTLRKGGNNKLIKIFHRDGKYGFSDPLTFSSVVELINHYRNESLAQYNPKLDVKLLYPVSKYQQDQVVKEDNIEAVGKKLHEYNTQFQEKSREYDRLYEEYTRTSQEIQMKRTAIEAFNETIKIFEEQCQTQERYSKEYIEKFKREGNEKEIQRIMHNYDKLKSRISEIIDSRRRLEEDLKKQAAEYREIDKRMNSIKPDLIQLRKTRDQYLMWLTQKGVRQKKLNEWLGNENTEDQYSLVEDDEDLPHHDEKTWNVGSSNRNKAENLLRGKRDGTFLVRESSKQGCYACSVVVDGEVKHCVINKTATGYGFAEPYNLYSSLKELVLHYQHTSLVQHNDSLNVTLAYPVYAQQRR

Row | Compound | sensitivity of CD28 signalling to the reagent (CD28 signalling) | effect of CD28 mutation on associated PI 3-kinase (TLC, in words) (PI 3-kinase) | also measured
1 | C=CC[C@@H]1/C=C(\C)C[C@H](C)C[C@H](OC)[C@H]2O[C@@](O)(C(=O)C(=O)N3CCCC[C@H]3C(=O)O[C@H](/C(C)=C/[C@@H]3CC[C@@H](O)[C@H](OC)C3)[C@H](C)[C@@H](O)CC1=O)[C@H](C)C[C@@H]2OC [FK506] | resistant | – | –
2 | CSCC[C@H](NC(=O)[C@@H]1CCCN1C(=O)[C@H](CCSC)NC(=O)[C@H](Cc1ccc(OP(=O)(O)O)cc1)NC(=O)[C@H](CCC(=O)O)NC(=O)[C@H](CCC(=O)O)NC(=O)[C@@H](N)CCC(=O)O)C(=O)N[C@@H](CCC(=O)O)C(=O)N[C@@H](CC(=O)O)C(=O)N[C@@H](CC(C)C)C(=O)N[C@@H](Cc1ccc(O)cc1)C(=O)N[C@@H](CC(C)C)C(=O)O [Glu-Glu-Glu-Tyr-Met-Pro-Met-Glu-Asp-Leu-Tyr-Leu] | – | – | reduction of the level of CD28-associated p85 PI 3-kinase [1]: 60-80%
3 | C194: CD28 with Met-194 mutated to Cys by site-directed mutagenesis | – | partial effect in reducing the level of associated kinase | reduction of CD28-associated PI 3-kinase activity (laser densitometry of PI-P spots) (PI 3-kinase): approximately 40%
4 | F209: CD28 with distal Tyr-209 mutated to Phe, control mutant | – | no effect relative to the wild type control | –
5 | cholera toxin | resistant | – | –
